Data from patent US20170209415A1, “USE OF (+)-1-(3,4-DICHLOROPHENYL)-3-AZABICYCLO[3.1.0]HEXANE TO TREAT ADDICTIVE DISORDERS INCLUDING NICOTINE ADDICTION” (priority 2012, published 2017).

Experiments:
[1] = cited from earlier work
[2] = system: alcohol-preferring (P) rats; assay: Nicotine potentiation of intracranial self-stimulation (ICSS) in alcohol-preferring rats; format: in vivo, rat
Experimental: (§1) Rats were anesthetized with isoflurane and an electrode was implanted in the medial forebrain bundles as previously described (Eiler et al., 2005; 2007). Behavioral training and testing was conducted in standard operant chambers (Coulbourn Instruments, Allentown, Pa.) equipped with a removable lever enclosed in a sound attenuating cubicle as previously reported (Eiler et al., 2005; 2007). Four dependent variables were collected in the studies: (1) the frequency that corresponds with 50% of responding (EF50), (2) the minimum/lowest frequency capable of maintaining brain stimulation reward (BSR), (3) the maximum frequency producing the highest rate of lever pressing throughout the BSR session, and (4) the total number of lever presses produced during a 20 minute session.
After surgical implantation, rats were trained on a continuous reinforcement (FR1) schedule, then decreased to a frequency of reinforcement after every six correct responses (FR6) until stabilization.
Following the initial ICSS experiments, the effects of varied doses of nicotine were examined in the ICSS paradigm. Animals were prepared and trained as described above.
as §1, with “The effect of (+)-1-(3, 4-dichlorophenyl)-3-azabicyclo[3.1.0]hexane on the nicotine facilitation of ICSS was examined in P rats. Rats” for “Rats”, “session” for “session,”
After surgical implantation, rats were trained on a continuous reinforcement (FR1) schedule, then decreased to a frequency of reinforcement after every six correct responses (FR6) until stabilization. After training, the rats were sensitized with nicotine (0.4 mg/kg daily) using the Kelley 10-day sensitization model as described in Example I (rats were treated with either nicotine (0.4 mg/ml/kg) or saline once per day for 10 days in a test environment distinct from their home cages (Schroeder et al., 2001).
After sensitization, three of the nicotine cohorts of P rats (n=8) were given (+)-1-(3, 4-dichlorophenyl)-3-azabicyclo[3.1.0]hexane (10, 20 or 40 μg) into the medial prefrontal cortex (mPC) prior to the daily administration of nicotine (0.4 mg/ml/kg).

[3] = system: alcohol-preferring (P) rats; assay: Nicotine sensitization, open field locomotor activity in alcohol-preferring rats; format: in vivo, rat; conditions: for locomotor activity when administered alone: oral 2.5-40 mg/kg without nicotine, P rats
Experimental: P and NP (alcohol-nonpreferring) rats were administered nicotine by subcutaneous injection of 0.4 mg/kg nicotine each day for 10 days. The rats were then immediately run for 90 minute locomotor sessions using an open-field activity monitoring cage (27×27×20.3 cm, Med Associates, Inc., St. Albans, Vt.). Activity counts represented by the number of infrared beam interruptions were recorded for each animal.
To evaluate the capacity of oral (+)-1-(3, 4-dichlorophenyl)-3-azabicyclo[3.1.0]hexane to block nicotine-induced sensitization in P rats, cohorts of P rats (n=6-9/group) were sensitized to nicotine as described in Example I. The rats were then divided into sixteen groups and given either vehicle, nicotine alone, 2.5 mg/kg (+)-1-(3, 4-dichlorophenyl)-3-azabicyclo[3.1.0]hexane, 5 mg/kg (+)-1-(3, 4-dichlorophenyl)-3-azabicyclo[3.1.0]hexane, 10 mg/kg (+)-1-(3, 4-dichlorophenyl)-3-azabicyclo[3.1.0]hexane, 25 mg/kg (+)-1-(3, 4-dichlorophenyl)-3-azabicyclo[3.1.0]hexane, or 40 mg/kg (+)-1-(3, 4-dichlorophenyl)-3-azabicyclo[3.1.0]hexane. Thirty minutes after administration of (+)-1-(3, 4-dichlorophenyl)-3-azabicyclo[3.1.0]hexane, half of the rats were given 0.4 mg/kg nicotine or vehicle. The rats were then immediately run for 90 minute locomotor sessions using an open-field activity monitoring cage (27×27×20.3 cm, Med Associates, Inc., St. Albans, Vt.). Activity counts represent the number of infrared beam interruptions were recorded for each animal.

[4] = system: alcohol-preferring (P) rats; assay: Forced swim test during nicotine withdrawal in alcohol-preferring rats; format: in vivo, rat
Experimental: The forced swim test (FST) is an animal model of depression in which nicotine withdrawal causes increased immobility (i.e. despair) in the rodents. The FST accordingly may be used as an animal model to evaluate negative affective states during nicotine withdrawal, which may emulate “depressive-like” behavior in human nicotine addicts.
P rats were administered nicotine by subcutaneous injection of 0.4 mg/kg nicotine each day for 14 days and then deprived of nicotine. Lucki's modified FST (Cryan et al., 2002) was performed using immobility, climbing and swimming every twelve hours following the last dose of nicotine (12 hrs, 24 hrs, 36 hrs, 48 hrs, 60 hrs and 72 hrs) for 72 hours.

[5] = target: T1, α7 nicotinic receptors (Homo sapiens, UniProt P36544); assay: Radioligand binding to α7 nicotinic receptors in SH-SYSY cells ([125I]α-bungarotoxin)
T1 construct: Cerep, Inc. (Poitiers, France), contract assay; host or cells: SH-SYSY (SH-SY5Y) cells
T1 sequence (P36544 23-502): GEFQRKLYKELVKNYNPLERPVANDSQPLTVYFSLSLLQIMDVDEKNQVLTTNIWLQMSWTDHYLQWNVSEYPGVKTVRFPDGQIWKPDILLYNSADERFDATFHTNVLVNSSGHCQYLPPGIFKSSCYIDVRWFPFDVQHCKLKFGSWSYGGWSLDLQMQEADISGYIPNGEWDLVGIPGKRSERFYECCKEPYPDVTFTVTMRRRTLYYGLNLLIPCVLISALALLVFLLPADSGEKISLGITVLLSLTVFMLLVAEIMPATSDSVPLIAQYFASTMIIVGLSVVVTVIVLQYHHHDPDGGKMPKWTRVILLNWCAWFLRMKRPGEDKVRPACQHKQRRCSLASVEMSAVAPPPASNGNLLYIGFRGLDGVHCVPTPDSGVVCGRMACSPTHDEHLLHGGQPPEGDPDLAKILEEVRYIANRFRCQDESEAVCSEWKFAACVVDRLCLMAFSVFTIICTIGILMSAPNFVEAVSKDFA
Experimental: (§2) To examine the possibility that a (+)-1-(3, 4-dichlorophenyl)-3-azabicyclo[3.1.0]hexane may have effects mediated via direct actions on nicotinic receptors, its affinity was determined for α7 and α4β2 nicotinic receptors in radioligand binding assays. The assessment was conducted by Cerep, Inc. (Poitiers, France). Inhibition of binding to α4β2 nicotinic receptors in SH-SYSY cells was determined using the radioligand [^3H]cytosine at 0.6 nM concentration according to the method of Gopalakrishnan et al. (1996). Incubation was for 120 minutes at 4° C. and non-specific binding was determined with 10 μM nicotine. Inhibition of binding to α7 nicotinic receptors in SH-SYSY cells was determined using [^125I]α-bungarotoxin (0.05 nM) according to the method of Sharples et al. (2000). Incubation was 120 minutes at 37° C. and non-specific binding was determined using α-bungarotoxin (1 μM). Specific binding of the radioligands was determined by scintillation spectrometry technology.

[6] = system: alcohol-preferring (P) rats; assay: Nicotine withdrawal effects in ICSS paradigm in alcohol-preferring rats; format: in vivo, rat
Experimental: as §1, with “session” for “session,”
After surgical implantation, rats were trained on a continuous reinforcement (FR1) schedule, and then decreased to a frequency of reinforcement after every six correct responses (FR6) until stabilization. After training, the rats were sensitized with nicotine (0.4 mg/kg daily) for 14 days. 12 hours after the last dose of nicotine, animals were run for a 20 min FR-6 ICSS sessions. ICSS sessions were run every 12 hours (12 hrs, 24 hrs, 36 hrs, 48 hrs, 60 hrs and 72 hrs) for 72 hours.
as §1, with “The effect of (+)-1-(3, 4-dichlorophenyl)-3-azabicyclo[3.1.0]hexane on nicotine withdrawal and ICSS was examined in P rats. Rats” for “Rats”, “session” for “session,”
After surgical implantation, rats were trained on a continuous reinforcement (FR1) schedule, and then decreased to a frequency of reinforcement after every six correct responses (FR6) until stabilization. After training, the rats were sensitized with nicotine (0.4 mg/kg daily) for 14 days. Rats were then given either PBS, 20 mg/kg of (+)-1-(3, 4-dichlorophenyl)-3-azabicyclo[3.1.0]hexane or 40 mg/kg of (+)-1-(3, 4-dichlorophenyl)-3-azabicyclo[3.1.0]hexane. After 48 hours, the animals were run for a 20 min FR-6 ICSS session.

[7] = target: T2, α4β2 nicotinic receptors (Homo sapiens, UniProt P17787+P43681); assay: Radioligand binding to α4β2 nicotinic receptors in SH-SYSY cells ([3H]cytosine)
T2 construct: Cerep, Inc. (Poitiers, France), contract assay; host or cells: SH-SYSY (SH-SY5Y) cells
T2 sequence (P43681 29-627 limits assumed): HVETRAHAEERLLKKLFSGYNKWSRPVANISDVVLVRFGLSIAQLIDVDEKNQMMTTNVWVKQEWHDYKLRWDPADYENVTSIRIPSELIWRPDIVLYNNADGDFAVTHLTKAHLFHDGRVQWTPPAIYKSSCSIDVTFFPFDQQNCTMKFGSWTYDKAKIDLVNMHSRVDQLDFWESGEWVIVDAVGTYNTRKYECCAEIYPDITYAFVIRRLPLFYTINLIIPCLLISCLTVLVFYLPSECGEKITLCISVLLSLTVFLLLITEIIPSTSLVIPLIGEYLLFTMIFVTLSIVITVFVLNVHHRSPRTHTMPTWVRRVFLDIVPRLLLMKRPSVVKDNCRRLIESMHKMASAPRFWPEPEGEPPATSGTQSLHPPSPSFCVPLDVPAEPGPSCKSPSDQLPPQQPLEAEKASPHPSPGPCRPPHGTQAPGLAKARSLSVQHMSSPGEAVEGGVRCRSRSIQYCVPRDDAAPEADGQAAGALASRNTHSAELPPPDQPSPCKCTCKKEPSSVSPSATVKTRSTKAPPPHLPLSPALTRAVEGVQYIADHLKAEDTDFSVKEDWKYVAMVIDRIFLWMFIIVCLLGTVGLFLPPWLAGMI
T2 sequence (P17787 26-502): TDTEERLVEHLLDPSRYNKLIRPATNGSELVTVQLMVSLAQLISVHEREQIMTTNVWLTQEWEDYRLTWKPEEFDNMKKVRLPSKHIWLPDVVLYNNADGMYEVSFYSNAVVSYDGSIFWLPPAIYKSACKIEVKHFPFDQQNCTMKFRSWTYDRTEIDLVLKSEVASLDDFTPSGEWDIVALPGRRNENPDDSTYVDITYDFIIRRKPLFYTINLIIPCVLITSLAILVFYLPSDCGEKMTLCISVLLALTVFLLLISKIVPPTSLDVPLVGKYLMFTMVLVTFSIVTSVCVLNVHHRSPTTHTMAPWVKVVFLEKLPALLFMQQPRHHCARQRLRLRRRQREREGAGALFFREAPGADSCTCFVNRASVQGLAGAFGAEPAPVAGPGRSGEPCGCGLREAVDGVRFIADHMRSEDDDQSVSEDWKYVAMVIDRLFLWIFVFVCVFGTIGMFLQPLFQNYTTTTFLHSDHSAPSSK
Experimental: as §2

[8] = read-out: % Inhibition of binding
[9] = oral 20 and 40 mg/kg, 48 hours nicotine abstinence
[10] = 0.2-0.8 mg/kg SQ, all 3 doses, sensitized P rats
[11] = after 0.4 mg/kg sc daily for 14 days
[12] = 12-72 hrs after last dose, 0.4 mg/kg daily for 14 days

Compound: COC[C@@H]1[C@@H](c2ccc(Cl)c(Cl)c2)C[C@@H]2CC[C@H]1N2 [GSK372475, reference compound]
- noradrenergic side effects such as significantly elevated heart rate and increased systolic and diastolic blood pressure ([1]; in vivo): seen

Compound: Clc1ccc([C@]23CNC[C@H]2C3)cc1Cl [amitifadine, (1R,5S)-(+)-1-(3,4-dichlorophenyl)-3-azabicyclo[3.1.0]hexane]
- nicotine elevation in total responding ([2]; 10, 20 or 40 μg into mPC): attenuation
- nicotine reduction of EF50 ([2]; 10, 20 or 40 μg into mPC): attenuation
- nicotine reduction of minimum frequency ([2]; 10, 20 or 40 μg into mPC): attenuation
- nicotine facilitation on ICSS ([2]; 10, 20 or 40 μg into medial prefrontal cortex immediately prior to nicotine 0.4 mg/ml/kg, P rats): significantly reduced
- nicotine-induced increases in horizontal activity ([3]; oral 2.5, 5, 10, 25, 40 mg/kg, 30 min before 0.4 mg/kg nicotine, sensitized P rats, 90 minute open field session): significantly reduced
- locomotor activity when administered alone ([3]; 90 minute open field session): did not significantly alter
- locomotor activity when administered alone ([3]; 90 minute open field session, listed as (+)-1-(3, 4-dichlorophenyl)-3-azabicyclo[3.1.0]hexane): did not alter
- nicotine-induced increases in immobility ([4]; oral 12.5 or 25 mg/kg administered at 48 hours of nicotine abstinence): significantly attenuated
- tolerability ([1]; U.S. Ser. No. 13/310,694, Graff et al. 2009): well tolerated
- dopaminergic side effects such as nausea, vomiting, and hypomania ([1]; in vivo): did not lead to
- noradrenergic side effects such as significantly elevated heart rate and increased systolic and diastolic blood pressure ([1]; in vivo): did not lead to
- inhibition at 0.1 µM [5, 8]: 13%
- inhibition at 1 µM [5, 8]: 6%
- inhibition at 10 µM [5, 8]: -9%
- effect on binding of radioligand ([5]; α7, concentrations from 100 to 10,000 nM): no appreciable effect
- reduction in responding produced by the 48 hour withdrawal period ([6]; oral 20 and 40 mg/kg): elevated
- nicotine elevation of the reward threshold, EF50 [6, 9]: profound reduction
- nicotine elevation of the reward threshold, minimum frequency [6, 9]: profound reduction
- inhibition at 0.1 µM ([7]; concentration 100 nM): 17%
- inhibition at 1 µM ([7]; concentration 1000 nM): 14%
- inhibition at 10 µM ([7]; concentration 10000 nM): 13%
- effect on binding of radioligand ([7]; concentrations from 100 to 10,000 nM): no appreciable effect

Compound: CN1CCCC1c1cccnc1 (stereo not shown) [nicotine]
- sensitivity to the reward potentiating effects of nicotine in ICSS following sensitization ([2]; 0.4 mg/kg sc on day 11, P, but not NP, rats): enhanced sensitivity
- ICSS responding versus saline ([2]; 0.2-0.8 mg/kg SQ on day 11, sensitized P rats): higher responding than did saline
- EF50 [2, 10]: reduction
- minimum frequency [2, 10]: reduction
- sensitization to nicotine (open field activity) ([3]; 0.4 mg/kg sc daily for 10 days, P versus NP rats): occurs in P rats only
- climbing during nicotine abstinence [4, 11]: Reduction
- swimming during nicotine abstinence [4, 11]: Reduction
- immobility during nicotine abstinence ([4]; at 48 and 72 hours after 0.4 mg/kg sc daily for 14 days): significant elevation
- EF50 during withdrawal [6, 12]: time dependent increase
- minimum frequency capable of maintaining BSR during withdrawal [6, 12]: time dependent increase
- total ICSS responding during withdrawal [6, 12]: marked reduction
